Results on 16 molecules are retold here after patent publication US20140005163A1 (NOVARTIS AG, priority 2010, published 2014).

pIC50: −log10 of the molar value. Values after ≈ are worked out from the molar mass of the structure shown.

For one data set, the target named is T1, PI3K beta (Homo sapiens, UniProt P42338).
T1 construct: for the full-length p110-b subunit are generated and fused by overlapping PCR; p85(iSH2) fusion partner (see partner chain) (N); His tag (C); made in house; host or cells: baculovirus; Tn5 (Trichoplusia ni) or TiniPro insect cells
Briefly: PI3K beta kinase assay (Kinase-Glo luminescence). Format: biochemical. The method in brief:
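p110β full-length/p85 iSH2 construct (BV-949), 25 nM, with 1 μM ATP and 10 μg/mL phosphatidylinositol in 10 mM Tris pH 7.5, 3 mM MgCl2, 50 mM NaCl, 0.05% CHAPS, 1 mM DTT. 60 min at room temperature; ATP remaining read by Kinase-Glo luminescence. IC50 from 8-point four-parameter logistic fit.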

For a further data set, the target named is T2, PI3K delta (Homo sapiens, UniProt O00329).
T2 construct: for the full-length p110-d subunit are generated and fused by overlapping PCR; p85(iSH2) fusion partner (see partner chain) (N); His tag (C); made in house; host or cells: baculovirus; Tn5 (Trichoplusia ni) or TiniPro insect cells
Nature of the data set: PI3K delta kinase assay (Kinase-Glo luminescence). Format: biochemical. The method in brief:
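Recombinant p85(iSH2)-Gly linker-p110δ full-length construct (BV1060, C-terminal His tag) was used at 10 nM with 10 μg/mL phosphatidylinositol and 1 μM ATP in 10 mM Tris-HCl pH 7.5, 3 mM MgCl2, 50 mM NaCl, 0.05% CHAPS, 1 mM DTT. After 60 min at room temperature, remaining ATP was measured by Kinase-Glo luminescence.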

Another data set concerns the target T3, PI3K alpha (Homo sapiens, UniProt P42336).
T3 construct: p85(iSH2) fusion partner (see partner chain) (N); His tag (C); made in house; host or cells: baculovirus; Tn5 (Trichoplusia ni) or TiniPro insect cells
Nature of the data set: PI3K alpha kinase assay (Kinase-Glo luminescence). Format: biochemical. The method in brief:
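PI3Kα construct EMV B1075 (10 nM final) was preincubated with 10 μg/mL phosphatidylinositol in 10 mM Tris-HCl pH 7.5, 3 mM MgCl2, 50 mM NaCl, 0.05% CHAPS, 1 mM DTT. Reaction started with 1 μM ATP, 60 min at room temperature; remaining ATP measured by Kinase-Glo luminescence. IC50 from 4-parameter logistic fit of 8-point titrations.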

A further data set has as its target T4, mTOR (Homo sapiens, UniProt P42345).
T4 construct: purchased Invitrogen Corporation (Carlsbad/CA, USA) PV4753
Nature of the data set: Biochemical assay for m-TOR by TR-FRET. The following applies: 8 μM ATP, 400 nM GFP-4EBP1, 0.5 nM mTOR. The method in brief:
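mTOR (0.5 nM) was incubated at rt with ATP (8 μM final) and GFP-4EBP1 (400 nM final) in 50 mM HEPES pH 7.5, 10 mM MnCl2, 50 mM NaCl, 1 mM EGTA, 1 mM DTT. EDTA stop with Tb3+-anti-p4EBP1 [pThr46] antibody (0.5 nM); TR-FRET read 15 min later.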

The nature of the next data set: Solubility at pH 6.8. Format: physicochemical. The following applies: pH 6.8, aqueous buffer, thermodynamic from solid; read-out: solubility. The procedure, abridged: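 Solubility was measured at pH 6.8 following the cited Zhou et al. (2007) procedure.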

T2 sequence (O00329 with tags, fused parts or gaps limits assumed): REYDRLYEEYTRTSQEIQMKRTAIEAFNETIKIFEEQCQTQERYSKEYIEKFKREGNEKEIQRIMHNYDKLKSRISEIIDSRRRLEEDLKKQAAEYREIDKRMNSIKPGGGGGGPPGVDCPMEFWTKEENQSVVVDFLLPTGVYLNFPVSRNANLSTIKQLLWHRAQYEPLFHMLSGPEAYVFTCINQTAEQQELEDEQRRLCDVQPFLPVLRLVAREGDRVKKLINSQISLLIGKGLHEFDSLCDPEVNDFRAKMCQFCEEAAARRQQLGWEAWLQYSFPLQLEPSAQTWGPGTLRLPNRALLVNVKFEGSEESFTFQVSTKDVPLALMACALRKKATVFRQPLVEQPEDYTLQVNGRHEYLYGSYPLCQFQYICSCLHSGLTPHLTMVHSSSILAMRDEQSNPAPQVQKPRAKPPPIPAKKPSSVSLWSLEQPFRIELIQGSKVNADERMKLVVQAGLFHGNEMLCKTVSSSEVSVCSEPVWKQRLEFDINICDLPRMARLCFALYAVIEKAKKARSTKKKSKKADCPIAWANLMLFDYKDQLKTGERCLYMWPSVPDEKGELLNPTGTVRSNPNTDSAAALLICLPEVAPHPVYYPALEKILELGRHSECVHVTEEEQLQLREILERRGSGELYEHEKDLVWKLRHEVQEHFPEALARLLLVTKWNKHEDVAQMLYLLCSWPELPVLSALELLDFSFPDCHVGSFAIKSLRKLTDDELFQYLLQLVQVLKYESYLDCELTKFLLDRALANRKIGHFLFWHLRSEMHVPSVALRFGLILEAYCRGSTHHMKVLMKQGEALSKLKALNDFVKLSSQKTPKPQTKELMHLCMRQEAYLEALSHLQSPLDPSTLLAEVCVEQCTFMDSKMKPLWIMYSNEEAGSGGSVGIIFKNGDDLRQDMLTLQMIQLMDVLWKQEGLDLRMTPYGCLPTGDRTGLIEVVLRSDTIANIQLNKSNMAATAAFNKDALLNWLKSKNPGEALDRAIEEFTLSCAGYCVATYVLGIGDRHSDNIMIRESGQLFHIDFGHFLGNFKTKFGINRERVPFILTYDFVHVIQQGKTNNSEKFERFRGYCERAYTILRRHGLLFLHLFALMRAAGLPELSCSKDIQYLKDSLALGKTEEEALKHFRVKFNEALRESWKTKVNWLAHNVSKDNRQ
T3 sequence (P42336 with tags, fused parts or gaps limits assumed): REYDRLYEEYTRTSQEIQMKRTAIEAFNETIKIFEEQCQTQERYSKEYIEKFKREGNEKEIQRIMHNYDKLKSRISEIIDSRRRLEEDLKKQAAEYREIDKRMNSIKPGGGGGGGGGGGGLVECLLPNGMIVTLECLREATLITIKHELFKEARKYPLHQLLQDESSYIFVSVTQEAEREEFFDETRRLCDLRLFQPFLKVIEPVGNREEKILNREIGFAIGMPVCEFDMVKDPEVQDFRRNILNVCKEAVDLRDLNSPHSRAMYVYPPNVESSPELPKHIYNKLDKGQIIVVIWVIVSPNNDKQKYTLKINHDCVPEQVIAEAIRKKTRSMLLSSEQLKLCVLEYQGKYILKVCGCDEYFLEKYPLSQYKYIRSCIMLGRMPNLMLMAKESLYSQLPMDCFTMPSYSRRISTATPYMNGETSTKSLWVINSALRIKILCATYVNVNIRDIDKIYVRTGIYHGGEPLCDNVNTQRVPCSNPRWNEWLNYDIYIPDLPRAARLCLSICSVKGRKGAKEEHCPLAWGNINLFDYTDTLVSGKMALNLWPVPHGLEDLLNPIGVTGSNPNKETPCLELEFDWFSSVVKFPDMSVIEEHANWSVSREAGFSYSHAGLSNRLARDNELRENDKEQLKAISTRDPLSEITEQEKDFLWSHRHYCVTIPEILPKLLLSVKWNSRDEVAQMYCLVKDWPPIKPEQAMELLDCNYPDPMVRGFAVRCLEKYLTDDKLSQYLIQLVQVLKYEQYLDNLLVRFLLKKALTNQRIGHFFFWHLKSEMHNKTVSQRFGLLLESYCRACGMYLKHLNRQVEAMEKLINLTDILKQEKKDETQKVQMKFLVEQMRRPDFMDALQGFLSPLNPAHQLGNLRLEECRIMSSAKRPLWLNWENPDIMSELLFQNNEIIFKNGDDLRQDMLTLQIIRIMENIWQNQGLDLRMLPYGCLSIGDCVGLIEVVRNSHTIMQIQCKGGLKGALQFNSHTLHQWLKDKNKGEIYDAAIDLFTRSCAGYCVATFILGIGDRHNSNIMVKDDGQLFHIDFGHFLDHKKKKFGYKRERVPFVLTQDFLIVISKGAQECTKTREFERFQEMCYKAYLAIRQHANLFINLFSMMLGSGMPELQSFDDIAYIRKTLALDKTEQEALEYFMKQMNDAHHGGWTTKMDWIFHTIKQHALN
T4 sequence (P42345 1360-2549 limits assumed): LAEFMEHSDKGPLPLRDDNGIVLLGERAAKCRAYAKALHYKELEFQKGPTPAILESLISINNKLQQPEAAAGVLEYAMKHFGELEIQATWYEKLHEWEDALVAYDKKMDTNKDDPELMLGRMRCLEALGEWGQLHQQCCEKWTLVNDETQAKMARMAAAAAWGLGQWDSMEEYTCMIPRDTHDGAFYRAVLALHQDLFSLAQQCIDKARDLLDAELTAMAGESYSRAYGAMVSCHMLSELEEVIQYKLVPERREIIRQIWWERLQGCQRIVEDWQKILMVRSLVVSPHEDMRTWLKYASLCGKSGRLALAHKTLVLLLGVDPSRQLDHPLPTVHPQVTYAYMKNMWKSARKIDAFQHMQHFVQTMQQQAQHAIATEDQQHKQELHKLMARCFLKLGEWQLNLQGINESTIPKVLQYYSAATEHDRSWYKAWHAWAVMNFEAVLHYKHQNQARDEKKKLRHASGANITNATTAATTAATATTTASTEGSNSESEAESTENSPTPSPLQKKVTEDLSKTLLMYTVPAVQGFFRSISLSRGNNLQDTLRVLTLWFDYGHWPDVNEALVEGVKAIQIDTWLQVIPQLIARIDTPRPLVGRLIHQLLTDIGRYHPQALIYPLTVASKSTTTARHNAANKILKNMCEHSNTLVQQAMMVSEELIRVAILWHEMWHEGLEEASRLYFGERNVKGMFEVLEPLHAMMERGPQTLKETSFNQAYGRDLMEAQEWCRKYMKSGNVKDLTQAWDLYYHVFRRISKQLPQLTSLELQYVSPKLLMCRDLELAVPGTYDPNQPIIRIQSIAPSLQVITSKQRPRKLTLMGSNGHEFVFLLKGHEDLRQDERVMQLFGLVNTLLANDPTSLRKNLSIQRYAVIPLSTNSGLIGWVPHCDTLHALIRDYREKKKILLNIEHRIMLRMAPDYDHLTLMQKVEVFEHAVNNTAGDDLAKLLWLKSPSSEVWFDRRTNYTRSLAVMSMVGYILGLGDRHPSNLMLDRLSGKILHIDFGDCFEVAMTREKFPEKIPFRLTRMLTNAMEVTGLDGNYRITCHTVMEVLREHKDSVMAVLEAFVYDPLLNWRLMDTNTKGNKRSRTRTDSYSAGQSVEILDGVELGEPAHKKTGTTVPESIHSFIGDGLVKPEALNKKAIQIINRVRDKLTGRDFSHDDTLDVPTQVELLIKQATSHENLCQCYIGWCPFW
T1 sequence (P42338 with tags, fused parts or gaps limits assumed): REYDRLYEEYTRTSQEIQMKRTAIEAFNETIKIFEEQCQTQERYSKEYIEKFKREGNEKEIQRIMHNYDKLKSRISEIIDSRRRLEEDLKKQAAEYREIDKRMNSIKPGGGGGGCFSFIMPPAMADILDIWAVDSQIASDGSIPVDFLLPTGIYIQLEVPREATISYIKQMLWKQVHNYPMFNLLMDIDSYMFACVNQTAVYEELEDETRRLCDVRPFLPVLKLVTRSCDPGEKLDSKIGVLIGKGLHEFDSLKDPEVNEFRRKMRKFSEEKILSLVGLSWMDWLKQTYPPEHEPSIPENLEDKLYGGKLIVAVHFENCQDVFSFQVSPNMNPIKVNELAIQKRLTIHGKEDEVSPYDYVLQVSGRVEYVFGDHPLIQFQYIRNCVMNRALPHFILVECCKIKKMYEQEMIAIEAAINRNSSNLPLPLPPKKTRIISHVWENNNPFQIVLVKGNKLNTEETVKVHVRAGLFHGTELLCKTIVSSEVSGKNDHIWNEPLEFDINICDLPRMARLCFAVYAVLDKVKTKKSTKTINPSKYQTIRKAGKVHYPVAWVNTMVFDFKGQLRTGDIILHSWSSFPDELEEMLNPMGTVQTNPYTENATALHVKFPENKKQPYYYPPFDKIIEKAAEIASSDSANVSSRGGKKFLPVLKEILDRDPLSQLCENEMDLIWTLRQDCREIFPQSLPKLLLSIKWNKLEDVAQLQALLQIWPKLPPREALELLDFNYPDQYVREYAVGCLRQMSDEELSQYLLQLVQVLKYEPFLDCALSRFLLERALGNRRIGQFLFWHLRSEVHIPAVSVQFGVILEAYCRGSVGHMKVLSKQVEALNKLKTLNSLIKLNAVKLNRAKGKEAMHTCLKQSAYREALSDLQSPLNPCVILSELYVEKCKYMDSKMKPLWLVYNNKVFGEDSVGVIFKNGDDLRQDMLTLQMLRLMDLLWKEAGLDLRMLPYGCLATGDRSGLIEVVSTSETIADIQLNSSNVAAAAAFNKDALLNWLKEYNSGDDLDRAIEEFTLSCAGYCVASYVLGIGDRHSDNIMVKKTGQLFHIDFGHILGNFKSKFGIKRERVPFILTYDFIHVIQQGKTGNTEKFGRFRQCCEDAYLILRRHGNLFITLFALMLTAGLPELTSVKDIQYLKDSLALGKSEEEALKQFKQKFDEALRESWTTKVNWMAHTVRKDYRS

Consider `Cc1nn(C)cc1-n1c(=O)n(C)c2cnc3ccc(-c4cnc5ccccc5c4)cc3c21` [Example 38, 1-(1,3-Dimethyl-1H-pyrazol-4-yl)-3-methyl-8-quinolin-3-yl-1,3-dihydro-imidazo[4,5-c]quinolin-2-one], for which the pIC50 at PI3K beta was 7.40; at PI3K delta it was 8.15; at PI3K alpha, 8.10; on mTOR, 8.22. Besides, in the data set “Solubility at pH 6.8”, the solubility is 13 µg/mL (≈ 30.9 µM).
For `Cc1nn(C)cc1-n1c(=O)n(C)c2cnc3ccc(-c4cnc5c(ccn5C)c4)cc3c21` [Example 116, 1-(1,3-Dimethyl-1H-pyrazol-4-yl)-3-methyl-8-(1-methyl-1H-pyrrolo[2,3-b]pyridin-5-yl)-1,3-dihydro-imidazo[4,5-c]quinolin-2-one], in that order: 6.69, 7.80, 7.92, 7.82 and 3 µg/mL (≈ 7.08 µM).
As for `CCNc1cc(-c2ccc3ncc4c(c3c2)n(-c2cn(CC)nc2C)c(=O)n4C)cnc1CO` [Example 155.2, 8-(5-Ethylamino-6-hydroxymethyl-pyridin-3-yl)-1-(1-ethyl-3-methyl-1H-pyrazol-4-yl)-3-methyl-1,3-dihydro-imidazo[4,5-c]quinolin-2-one], the pIC50 was 7.77 at PI3K beta, 7.66 on PI3K delta, 7.85 on PI3K alpha and 7.92 on mTOR. Moreover, in the data set “Solubility at pH 6.8”, the solubility was greater than 458 µg/mL.
As for `Cc1nn(C)cc1-n1c(=O)n(C)c2cnc3ccc(-c4cnc(N)c(Cl)c4)cc3c21` [Example 148.2, 8-(6-Amino-5-chloro-pyridin-3-yl)-1-(1,3-dimethyl-1H-pyrazol-4-yl)-3-methyl-1,3-dihydro-imidazo[4,5-c]quinolin-2-one], the pIC50 is 7.46 at PI3K beta, 7.41 on PI3K delta, 7.74 on PI3K alpha and 8.05 on mTOR. Further, in “Solubility at pH 6.8”, the solubility came out at 4 µg/mL (≈ 9.53 µM).
As to `Cc1nn(C)cc1-n1c(=O)n(C)c2cnc3ccc(-c4cncc(N(C)C(C)C)c4)cc3c21` [Example 173, 1-(1,3-Dimethyl-1H-pyrazol-4-yl)-8-[5-(isopropyl-methyl-amino)-pyridin-3-yl]-3-methyl-1,3-dihydro-imidazo[4,5-c]quinolin-2-one], the pIC50 on PI3K beta is 6.83; at PI3K delta, 7.43; on PI3K alpha, 7.64; on mTOR, 8.40. For the same molecule, in the data set “Solubility at pH 6.8”, the solubility was found to be 8 µg/mL (≈ 18.1 µM).
On to `CCOc1ccc(-c2ccc3ncc4c(c3c2)n(-c2c(C)nn(C)c2C)c(=O)n4C)cn1` [Example 3.3, 8-(6-Ethoxy-pyridin-3-yl)-3-methyl-1-(1,3,5-trimethyl-1H-pyrazol-4-yl)-1,3-dihydro-imidazo[4,5-c]quinolin-2-one], for which the pIC50 on PI3K beta is 6.40; on PI3K delta, 6.83; on PI3K alpha, 6.84; at mTOR, 6.19. The solubility in the data set “Solubility at pH 6.8” is 104 µg/mL (≈ 243 µM).
For `CCn1cc(-n2c(=O)n(C)c3cnc4ccc(-c5cncc(N)c5)cc4c32)c(C)n1` [Example 45.2, 8-(5-Amino-pyridin-3-yl)-1-(1-ethyl-3-methyl-1H-pyrazol-4-yl)-3-methyl-1,3-dihydro-imidazo[4,5-c]quinolin-2-one], the pIC50 at PI3K beta is 7.54; at PI3K delta, 8.40; on PI3K alpha, 7.13; on mTOR it was 7.62. Besides, the solubility in the data set “Solubility at pH 6.8” stood at 10 µg/mL (≈ 25 µM).
For the molecule `Cn1nccc1-n1c(=O)n(C)c2cnc3ccc(-c4ccc(NCCO)nc4)cc3c21` [Example 21.1, 8-[6-(2-Hydroxy-ethylamino)-pyridin-3-yl]-3-methyl-1-(2-methyl-2H-pyrazol-3-yl)-1,3-dihydro-imidazo[4,5-c]quinolin-2-one], the pIC50 on PI3K beta is 6.02; on PI3K delta it was 6.94; at PI3K alpha it was 6.57; on mTOR, 6.70. Also, the solubility in “Solubility at pH 6.8” was greater than 415 µg/mL.
Take `CCc1ncc(-c2ccc3ncc4c(c3c2)n(-c2cn(C)nc2C)c(=O)n4C)cc1O` [Example 188, 1-(1,3-Dimethyl-1H-pyrazol-4-yl)-8-(6-ethyl-5-hydroxy-pyridin-3-yl)-3-methyl-1,3-dihydro-imidazo[4,5-c]quinolin-2-one]: the pIC50 at PI3K beta was 7.52; on PI3K delta, 8.40; at PI3K alpha, 8.05; at mTOR, greater than 8.52. Moreover, in “Solubility at pH 6.8”, the solubility turned out to be 44 µg/mL (≈ 106 µM).
Take `CNc1cc(-c2ccc3ncc4c(c3c2)n(-c2cn(C)nc2Cl)c(=O)n4C)cnc1CO` [Example 158.3, 1-(3-Chloro-1-methyl-1H-pyrazol-4-yl)-8-(6-hydroxymethyl-5-methylamino-pyridin-3-yl)-3-methyl-1,3-dihydro-imidazo[4,5-c]quinolin-2-one]: the pIC50 at PI3K beta was 8.10; at PI3K delta, 8.40; at PI3K alpha, 8.15; on mTOR, 7.92. The solubility in the data set “Solubility at pH 6.8” worked out at 3 µg/mL (≈ 6.67 µM).
Turning to `Cc1nn(C)cc1-n1c(=O)n(C)c2cnc3ccc(-c4cccc(S(=O)(=O)N5CCCC5)c4)cc3c21` [Example 44, 1-(1,3-Dimethyl-1H-pyrazol-4-yl)-3-methyl-8-[3-(pyrrolidine-1-sulfonyl)-phenyl]-1,3-dihydro-imidazo[4,5-c]quinolin-2-one], the pIC50 on PI3K beta was 6.66; on PI3K delta, 7.55; at PI3K alpha, 7.15; on mTOR, 6.25. For the same molecule, the solubility in the data set “Solubility at pH 6.8” worked out at 8 µg/mL (≈ 15.9 µM).
In the case of `CCn1cc(-n2c(=O)n(C)c3cnc4ccc(-c5ccc(OC)c(OC)c5)cc4c32)c(C)n1` [Example 1.6, 8-(3,4-Dimethoxy-phenyl)-1-(1-ethyl-3-methyl-1H-pyrazol-4-yl)-3-methyl-1,3-dihydro-imidazo[4,5-c]quinolin-2-one], the pIC50 at PI3K beta is 7.37; at PI3K delta it was 7.96; on PI3K alpha, 8.10; at mTOR, 8.00. Moreover, the solubility in the data set “Solubility at pH 6.8” is 65 µg/mL (≈ 147 µM).
On to `CCN(C)c1ccc(-c2ccc3ncc4c(c3c2)n(-c2cn(C)nc2C)c(=O)n4C)cn1` [Example 98.1, 1-(1,3-Dimethyl-1H-pyrazol-4-yl)-8-[6-(ethyl-methyl-amino)-pyridin-3-yl]-3-methyl-1,3-dihydro-imidazo[4,5-c]quinolin-2-one], for which the pIC50 on PI3K beta was 6.39; on PI3K delta it was 7.32; at PI3K alpha, 7.47; on mTOR, 7.70. Besides, in “Solubility at pH 6.8”, the solubility turned out to be 8 µg/mL (≈ 18.7 µM).
On to `Cc1nn(C)cc1-n1c(=O)n(C)c2cnc3ccc(-c4ccc(C(N)=O)nc4)cc3c21` [Example 14, 5-[1-(1,3-Dimethyl-1H-pyrazol-4-yl)-3-methyl-2-oxo-2,3-dihydro-1H-imidazo[4,5-c]quinolin-8-yl]-pyridine-2-carboxylic acid amide], for which the pIC50 on PI3K beta was 6.89; on PI3K delta, 7.47; at PI3K alpha, 7.74; at mTOR it was 8.22. Further, in the data set “Solubility at pH 6.8”, the solubility came to 53 µg/mL (≈ 128 µM).
For the molecule `Cn1cc(-n2c(=O)n(C)c3cnc4ccc(-c5cncc(C(C)(C)C#N)c5)cc4c32)c(Cl)n1` [Example 220.3, 2-{5-[1-(3-Chloro-1-methyl-1H-pyrazol-4-yl)-3-methyl-2-oxo-2,3-dihydro-1H-imidazo[4,5-c]quinolin-8-yl]-pyridin-3-yl}-2-methyl-propionitrile], the pIC50 on PI3K beta was 8.15; on PI3K delta, 8.52; at PI3K alpha it was 8.30; on mTOR, 8.30. Also, the solubility in the data set “Solubility at pH 6.8” came out at 16 µg/mL (≈ 34.9 µM).
As to `CNc1cc(-c2ccc3ncc4c(c3c2)n(-c2cn(C(C)C)nc2C)c(=O)n4C)cnc1CO` [Example 158.2, 8-(6-Hydroxymethyl-5-methylamino-pyridin-3-yl)-1-(1-isopropyl-3-methyl-1H-pyrazol-4-yl)-3-methyl-1,3-dihydro-imidazo[4,5-c]quinolin-2-one], the pIC50 at PI3K beta is 6.74; at PI3K delta, 8.10; at PI3K alpha it was 7.36; at mTOR, 8.40. The solubility in the data set “Solubility at pH 6.8” is greater than 458 µg/mL.
